Assay results as given in PMC9381947 (Antiviral Research, 2022).

What was measured:
NSP13 E319A = type: biochemical, SARS-CoV-2
NSP13 E375A = type: biochemical, SARS-CoV-2

O=C1O[C@@H]2[C@@H](OC(=O)c3cc(O)c(O)c(O)c3-c3c1cc(O)c(O)c3O)[C@H](O)O[C@@H]1COC(=O)c3cc(O)c(O)c(O)c3-c3c(O)c(O)c4oc(=O)c5c(c(O)c(O)c6oc(=O)c3c4c65)-c3c(cc(O)c(O)c3O)C(=O)O[C@@H]21 [Punicalagin, 2,3-hexahydroxydiphenoyl-gallagyl-D-glucose]
reduction of the inhibitory potency compared to wild type (NSP13 E319A): about 2 fold | reduction of the inhibitory potency compared to wild type (NSP13 E375A): about 2 fold
